Literature values, collected in US9669099B2, “Pine bark extract and black pepper essential oil with anti-inflammatory and anti-arthritic action and method of preparing same” (priority 2015, dated 2017).

How the values were obtained:
leukotriene production = conditions: leukotriene as a mediator of inflammation
[1] = test system: TNF-α (Tumor Necrosis Factor alpha); conditions: fibroblast cultures, all animals assessed

Compound	inhibitor of leukotriene production (leukotriene production)	further results
C=CC(C)(O)CCC=C(C)C (racemic) [(±)-linalool]	effective as an inhibitor	
CC1=C[C@@H](O)[C@@H]2C[C@H]1C2(C)C (relative stereo) [(+)-cis-verbenol]	effective as an inhibitor	
C=C(C)C1CC=C(C)CC1 (single isomer, unassigned; (+)) [(+)-limonene]	effective as an inhibitor	
CC1CCC(C(C)C)C(O)C1 (single isomer, unassigned; (-)) [(−)-menthol]	effective as an inhibitor	
CC1=CC[C@@H]2C[C@H]1C2(C)C [(+)-α-pinene]	effective as an inhibitor	
CC1=CC[C@H]2C[C@@H]1C2(C)C [(−)-α-pinene]	effective as an inhibitor	
C/C1=C\CC/C(C)=C/CC(C)(C)/C=C/C1 [Alpha-humulene]		prevention of production of proinflammatory cytokines TNF-a and IL-1b (TNF-a and IL-1b): ability to prevent; inhibition of LPS-induced neutrophil migration (neutrophil migration): inhibit; inhibition of LPS-induced NF-kB activation (NF-kB activation): inhibit; prevention of in vivo up-regulation of kinin B1 receptors (kinin B1 receptors): ability to prevent
C=C1CC/C=C(\C)CC[C@@H]2[C@@H]1CC2(C)C [Beta-caryophyllene]		inhibition of LPS-induced neutrophil migration (neutrophil migration): inhibit; inhibition of LPS-induced NF-kB activation (NF-kB activation): inhibit
CC(C)=CCCC(C)=CC=O [citral]	effective as an inhibitor	
CC(C)=CCC/C(C)=C/CO [geraniol]	effective as an inhibitor	
C=C(C)[C@H]1CC=C(C)CC1 [limonene]		inhibition of TNF-α [1]: inhibition of TNF-α
CC1=CCCC(C)(C)C1C=O (stereo not drawn) [α-cyclocitral]	effective as an inhibitor	
CC1=CC=C(C(C)C)CC1 [α-terpinene]	effective as an inhibitor	
C=CC(=C)CCC=C(C)C [β-myrcene]	effective as an inhibitor	
CC1=CCC(C(C)C)=CC1 [γ-terpinene]	effective as an inhibitor	
